Data reported in the supplement of paper PMC12370961.

Tests used:
Experiment in all cases: differential drug sensitivity score (dDSS) relative to sarcoma reference cohort mean DSS (DSS units (0-100 scale difference)); higher = more selective sensitivity than reference sarcomas
Conditions in all cases: exposure time: 72 h; concentration range: 10-10000 nM
[1] = tested on: ES-ZH001 (patient-derived Ewing sarcoma tumoroid)
Procedure: (§1)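 Drug response profiling of patient-derived Ewing sarcoma and CIC::DUX4 sarcoma tumoroid models (or cells tested directly after isolation from the tumor, 'direct'). The DSS is the normalised AUC (0-100); dDSS is the sample DSS minus the mean DSS of a 34-sarcoma reference cohort profiled in the same lab.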

[2] = tested on: ES-ZH007 (patient-derived Ewing sarcoma tumoroid)
Procedure: as §1

[3] = tested on: CDS-ZH003 (patient-derived CIC-DUX4 sarcoma tumoroid)
Procedure: as §1

[4] = tested on: ES-ZH016 (patient-derived Ewing sarcoma tumoroid)
Procedure: as §1

[5] = tested on: CDS-ZH001-2 (patient-derived CIC-DUX4 sarcoma tumoroid)
Procedure: as §1

[6] = tested on: CDS-ZH002 direct (CIC-DUX4 sarcoma cells right after isolation)
Procedure: as §1

[7] = tested on: CDS-ZH002 (patient-derived CIC-DUX4 sarcoma tumoroid)
Procedure: as §1

[8] = tested on: CDS-ZH001 (patient-derived CIC-DUX4 sarcoma tumoroid)
Procedure: as §1

[9] = tested on: ES-ZH008 (patient-derived Ewing sarcoma tumoroid)
Procedure: as §1

[10] = tested on: ES-ZH009 (patient-derived Ewing sarcoma tumoroid)
Procedure: as §1

[11] = tested on: ES-ZH002 (patient-derived Ewing sarcoma tumoroid)
Procedure: as §1

[12] = tested on: ES-ZH016 direct (Ewing sarcoma cells right after isolation)
Procedure: as §1

[13] = tested on: ES-ZH004 (patient-derived Ewing sarcoma tumoroid)
Procedure: as §1

SMILES | differential drug sensitivity score [1] | differential drug sensitivity score [2] | differential drug sensitivity score [3] | differential drug sensitivity score [4] | differential drug sensitivity score [5] | differential drug sensitivity score [6] | differential drug sensitivity score [7] | differential drug sensitivity score [8] | differential drug sensitivity score [9] | differential drug sensitivity score [10] | differential drug sensitivity score [11] | differential drug sensitivity score [12] | differential drug sensitivity score [13]
O=C(/C=C\n1cnc(-c2cc(C(F)(F)F)cc(C(F)(F)F)c2)n1)NNc1cnccn1 [Selinexor] | -0.6 | 3.2 | -0.6 | -2.7 | 1.3 | -3.6 | -5.5 | -1.3 | 16.7 | -11.6 | 6.2 | 2.2 | 13.5
Nc1ncn([C@@H]2O[C@H](CO)[C@@H](O)[C@H]2O)c(=O)n1 [Azacitidine] | -1.2 | -1.2 | -1.2 | -1.2 | -0.6 | 0.2 | 0.2 | -0.4 | -1.2 | 0.6 | 4.4 | -1.2 | -1.2
CCc1c2c(nc3ccc(O)cc13)-c1cc3c(c(=O)n1C2)COC(=O)[C@]3(O)CC [SN-38] | 13.2 | 17.1 | -1.4 | 16.4 | 5.2 | -0.9 | -1 | 7 | 8.8 | 15.7 | 15.3 | 4.9 | 14.9
c1cn2cc(-c3ccc4cn[nH]c4c3)nc(Nc3ccc(N4CCOCC4)cc3)c2n1 [Entospletinib] | -2.1 | -2.1 | 0 | -2.1 | 10.6 | -1.8 | 13.4 | -2.1 | -2.1 | -2.1 | -2.1 | 13.1 | -2.1
CCN(CCCOc1ccc2c(Nc3cc(CC(=O)Nc4cccc(F)c4)[nH]n3)ncnc2c1)CCOP(=O)(O)O [Barasertib] | 32.8 | 4.7 | -8.9 | 22.6 | 4.6 | -3 | -3 | -8.9 | 17.5 | 27.6 | 26.1 | 23.8 | 10.1
Cc1ccc(F)c(NC(=O)Nc2ccc(-c3cccc4[nH]nc(N)c34)cc2)c1 [Linifanib] | 3.8 | -1.4 | 0.8 | 0.1 | -0.9 | 1.4 | -1.4 | 0.8 | -0.4 | 2.3 | 2.4 | 0.7 | -1.3
CC(=O)c1c(C)c2cnc(Nc3ccc(N4CCNCC4)cn3)nc2n(C2CCCC2)c1=O [Palbociclib] | -2.5 | 6.9 | -1.6 | 0 | 10.4 | -0.3 | 1 | 6.1 | 5.8 | 2.9 | 11.4 | -7.7 | 2.4
CO[C@@H](C)Cn1c(=O)n(C)c2cnc3ccc(-c4cncc(C(C)(C)O)c4)cc3c21 [Samotolisib] | 1 | 2.6 | 0.5 | 6 | 0.9 | 4.5 | -8.8 | 2.3 | 10.9 | 7.1 | 12.2 | -2.7 | 2.3
CCNC(=O)C[C@@H]1N=C(c2ccc(Cl)cc2)c2cc(OC)ccc2-n2c(C)nnc21 [Molibresib] | 0.4 | -1.8 | -5.3 | 0.4 | -1 | -3.9 | -5.5 | -1.2 | 6.8 | 5.5 | 5.5 | 4.2 | -0.4
CNC(=O)c1cc(Oc2ccc(NC(=O)Nc3ccc(Cl)c(C(F)(F)F)c3)cc2)ccn1 [Sorafenib] | -0.8 | -1.2 | -1.8 | -1.2 | -1 | -0.3 | -1.2 | -0.5 | -1.2 | 0.2 | -1.2 | -1.2 | -1.2
O=C(c1cc(Cc2n[nH]c(=O)c3ccccc23)ccc1F)N1CCN(C(=O)C2CC2)CC1 [Olaparib] | 8.4 | 4 | -5.3 | 7.1 | -2 | -5.3 | -5.3 | -3.8 | 10.3 | -0.2 | 15 | 11.3 | 11.2
CC[C@@H]1C(=O)N(C)c2cnc(Nc3ccc(C(=O)N[C@H]4CC[C@H](N5CCN(CC6CC6)CC5)CC4)cc3OC)nc2N1C(C)C [Volasertib] | 10.3 | 2.9 | -2.3 | 8.9 | 13.2 | -3.8 | 4 | -2.4 | 4.5 | 16.1 | 9.4 | 16.6 | 0.5
Nc1nc2[nH]cnc2c(=S)[nH]1 [Thioguanine] | 15.5 | 1.2 | -4.2 | -4.8 | 5.1 | 2.5 | 0.2 | 1 | 10.4 | 9.6 | 17.1 | 3.7 | 12.4
CCCS(=O)(=O)Nc1ccc(F)c(C(=O)c2c[nH]c3ncc(-c4ccc(Cl)cc4)cc23)c1F [Vemurafenib] | -0.6 | -0.6 | 7.4 | -0.6 | -0.6 | -0.6 | -0.6 | -0.6 | -0.6 | 0.8 | -0.6 | -0.6 | -0.6
CCc1cncnc1N1CCN(Cc2nc3ccc(C(F)(F)F)cc3[nH]2)CC1 | -0.7 | -1.7 | -0.6 | -3.1 | -3.6 | -2.4 | -1 | -3.7 | -3.8 | 3.3 | -3.9 | -4.2 | -2.8
CC[C@]1(O)C[C@@H]2CN(CCc3c([nH]c4ccccc34)[C@@](C(=O)OC)(c3cc4c(cc3OC)N(C)[C@H]3[C@@](O)(C(=O)OC)[C@H](OC(C)=O)[C@]5(CC)C=CCN6CC[C@]43[C@@H]65)C2)C1 [Vinblastine] | 22.3 | 13.2 | -9.2 | 16.2 | 2.2 | 8.4 | 13.2 | 9.1 | 12.7 | 23.7 | 22.2 | 10.2 | 12.3
Fc1cc(-c2cccc3ncc(-c4cnn(C5CCNCC5)c4)nc23)cc(F)c1CN1CCOCC1 [BSK805] | -0.1 | 2.8 | 2.6 | 2.5 | 1.9 | 0.1 | -2.6 | 2.5 | 2.9 | 1.7 | 3.2 | 3 | 1.4
C[C@@H]1COCCN1c1cc(C2([S@](C)(=N)=O)CC2)nc(-c2cc[nH]c3nccc2-3)n1 [Ceralasertib] | 5.9 | 3 | -4.4 | 4.5 | 0.7 | -2.5 | -0.4 | 0 | 9.7 | 2.1 | 12 | 13.8 | 5.7
Cc1cc(Nc2ncc(Cl)c(Nc3ccccc3S(=O)(=O)C(C)C)n2)c(OC(C)C)cc1C1CCNCC1 [Ceritinib] | 2.9 | 3.8 | 0.3 | 3.4 | 7 | -0.1 | 0.4 | 4.9 | 4.9 | 2.1 | 11.7 | 3.7 | 3.5
CC(C)NCCCn1c(Sc2cc3c(cc2I)OCO3)nc2c(N)ncnc21 [Zelavespib] | 0.8 | 0.4 | 4.4 | -0.6 | 3.1 | -1.1 | -7.7 | 0.5 | 5.8 | 7.3 | 3.4 | 2.3 | -2.1
Oc1nc(-c2ccc(C(F)(F)F)cc2)nc2c1CSCC2 [XAV-939] | -2.2 | -1.4 | 7.7 | 2.7 | 3.9 | 4.3 | 1.6 | -2.2 | -2.2 | -0.6 | -1.2 | 3.7 | -2.2
COc1nc(N)nc2c1ncn2[C@@H]1O[C@H](CO)[C@@H](O)[C@@H]1O [Nelarabine] | 3.2 | -1.6 | -2.5 | -2.5 | -2.5 | -2.5 | -2.5 | -2.5 | 5.2 | -2.5 | 8.4 | -2.5 | 1
CS(=O)(=O)c1ccc(C(=O)Nc2ccc(Cl)c(-c3ccccn3)c2)c(Cl)c1 [Vismodegib] | 4.7 | 0.4 | -6.9 | 1.4 | -2.6 | 1.1 | -2.4 | -2.7 | 2.8 | -2.6 | 7.1 | -2.7 | 5.2
CO[C@H]1C[C@@H]2CC[C@@H](C)[C@@](O)(O2)C(=O)C(=O)N2CCCC[C@H]2C(=O)O[C@H]([C@H](C)C[C@@H]2CC[C@@H](OCCO)[C@H](OC)C2)CC(=O)[C@H](C)/C=C(\C)[C@@H](O)[C@@H](OC)C(=O)[C@H](C)C[C@H](C)/C=C/C=C/C=C/1C [Everolimus] | 5.3 | 9.6 | -3.3 | -3.5 | -3.9 | -6.4 | -7.4 | -5.3 | 4.8 | 9.3 | 13.6 | -7 | 12
CCN1CCN(Cc2ccc(Nc3ncc(F)c(-c4cc(F)c5nc(C)n(C(C)C)c5c4)n3)nc2)CC1 [Abemaciclib] | 8.8 | 5.7 | -2.7 | 1.5 | -2.7 | 2.2 | -2.7 | -2.4 | 10.7 | 6.4 | 14.7 | -2.7 | 10.4
CC(C)NC[C@@H](C(=O)N1CCN(c2ncnc3c2[C@H](C)C[C@H]3O)CC1)c1ccc(Cl)cc1 [Ipatasertib] | -3.2 | 1.3 | 8.9 | -0.5 | 2 | -3.2 | -0.8 | 7.6 | 6.6 | 2.4 | 10.2 | -3.9 | 3.9
CC(C)C[C@H](NC(=O)[C@H](CCc1ccccc1)NC(=O)CN1CCOCC1)C(=O)N[C@@H](Cc1ccccc1)C(=O)N[C@@H](CC(C)C)C(=O)[C@@]1(C)CO1 [Carfilzomib] | 8.2 | 12.2 | 4.4 | 4.3 | 6 | 5.5 | 0.7 | 5.3 | 4 | 10.8 | 9.9 | 6.8 | 10.9
COc1cc2nc(N3CCCN(C)CC3)nc(NC3CCN(Cc4ccccc4)CC3)c2cc1OC | 0.7 | 7.4 | 4 | -0.1 | 4 | 1.5 | -1.1 | 0.2 | 1.2 | -0.4 | 0 | 3.9 | 6.4
CN[C@@H](C)C(=O)N[C@H](C(=O)N1CCC[C@H]1c1nc(C(=O)c2ccc(F)cc2)cs1)C1CCCCC1 [LCL161] | -1.3 | -0.2 | 3.3 | -1.3 | 4.5 | 1 | -1.3 | 11.6 | -0.8 | -1.3 | -1.3 | 0.8 | -0.7
